Results reported in PMC12040169 (PLOS Biology, 2025).

Assay: in vitro
Conditions: human, hela cells, % viability

Point of comparison: `CCOC(=O)c1sc2nc(C)ccc2c1N` [CBK115377], viability at 28.5 h, 10 µM 96.5%. Against it:
- Cc1[nH]c2ccccc2c1/C=C1/C(=N)N2C(SCc3ccccc3)=NSC2=NC1=O [CBK265291] — lower, 90%
- O=C(O)c1[nH]c(=O)[nH]c(=O)c1CN1CCCCC1 [CBK286688] — higher, 96.8%
- Fc1ccccc1CSc1nnc(-c2cnccn2)n1Cc1ccco1 [CBK267556] — lower, 96.4%
- CC(=O)Nc1cc(C(=O)NCc2ccc(F)cc2)ccc1Sc1ccc(Cl)cc1 [CBK294468] — lower, 96.2%
- CCn1c(CN2CCCC2c2nc(N(C)C)ncc2-c2ccccc2)nc2ccccc21 (stereo not drawn) [CBK286070] — lower, 83.4%
- CCOC(=O)CNS(=O)(=O)Cc1ccccc1[N+](=O)[O-] [CBK034439] — lower, 95.3%
- CC(C)C(=O)Nc1c(-c2ccsc2)cnc2ncccc12 [CBK083714] — lower, 88.7%
- CCCC/C=C/c1cnc2[nH]c(=O)n(C3CCOCC3)c2n1 [CBK064253] — higher, 98.1%
- CC(NC(=O)C1CC(=O)OC1(C)C)c1ccc2c(c1)CCCO2 (stereo not drawn) [CBK281613] — lower, 88.4%
- COc1ccc(C(=O)Nc2c(C)nn(C)c2N2CCNCC2)cc1 [CBK050306T] — lower, 94.5%
- O=C(COc1ccc(Br)cc1)N1CCN(Cc2ccncc2)CC1 [CBK073259] — higher, 98.1%
- O=C(O)CNC(=O)/C(=C\c1ccco1)NC(=O)c1ccccc1Cl [CBK263967] — lower, 84.8%
- COc1cc(NC(=O)COc2cc(C)cc(C)c2)c(C(=O)O)cc1OC [CBK268650] — lower, 93.8%
- CCc1c(C)nc2c(C(=O)N3CCCC3COC)cnn2c1C (stereo not drawn) [CBK162146] — lower, 92.1%
- CC(C)C(=O)Nc1ccc2nc(-c3ccoc3)c(-c3ccoc3)nc2c1 [CBK286304] — higher, 96.9%
- Cc1cnn(CC(=O)N2CCCC(COc3ccccc3F)C2)c1 (stereo not drawn) [CBK281999] — higher, 102%
- Cc1oc2ncn(Cc3ccccc3)c(=N)c2c1C [CBK288160] — lower, 94.4%
- Cc1cc(NS(=O)(=O)c2ccccc2Br)n(C)n1 [CBK067376] — higher, 102%
- CC1=NC2c3ccsc3C=CC2S1 (stereo not drawn) [CBK008720] — higher, 112%
- COc1cccc2ccn(S(=O)(=O)c3ccsc3C(=O)O)c12 [CBK003636] — lower, 96.1%
- Cc1nc(C)c(C(=O)N2CCC(c3cc4c(C)cccc4cn3)CC2)o1 [CBK285186] — higher, 108%
- COc1cc(CC(=O)Nc2cccc(-c3ccc(OC4CCNCC4)cc3)n2)cc(OC)c1OC [CBK138351] — lower, 83.4%
- Cc1cc(=O)[nH]c(SCc2nc3ccccn3c2Br)n1 [CBK296063] — higher, 121%
- Cc1ccccc1S(=O)(=O)N(c1ccc(C(C)(C)C)cc1)C1CCNCC1 [CBK165074T] — higher, 97.8%
- Cc1ccc(OCc2nc(C#N)c(NCCCN3CCOCC3)o2)cc1 [CBK266423] — higher, 112%
- COc1ccc(Br)cc1S(=O)(=O)NCCCN1CCOCC1 [CBK264050] — higher, 103%
- CN(C)C1CCN(C(=O)c2ccc(-c3cnc(OCC4CCN(C(=O)OC(C)(C)C)CC4)nc3)cc2)C1 (stereo not drawn) [CBK169767] — higher, 113%
- CCCC(=O)N[C@@H](C)Cn1c(C(F)(F)F)cc2cccnc21 [CBK283232] — lower, 92.7%
- Cc1ccc(C(C)NC(=O)C2CCCN(S(C)(=O)=O)C2)c(C)c1 (stereo not drawn) [CBK304349] — lower, 94.1%
- OCc1cc(CC2(NCc3cccc4c3OCO4)COC2)no1 [CBK289314] — lower, 90.6%
- COc1cc(-c2nc3ncccc3cc2NC(=O)C(C)C)cc(OC)c1OC [CBK073661] — higher, 96.6%
- CCOc1cccc(-c2ccc(N(C)CCN(C)C)nc2)c1 [CBK036904] — lower, 94.8%
- CC(=O)Oc1cccc(CN2CCCN(S(=O)(=O)c3ccc(-c4ccccc4)cc3)CC2)c1 [CBK063113] — lower, 94.1%

Same assay, conditions: human, hela cells, % viability, bulk resorufin, single well

Point of comparison: `COc1cc(Br)cc(CN2CCN(Cc3ccccc3)CC2)c1O` [CBK261880], viability at 28.5 h, 10 µM 108%. Against it:
- Nc1ncnc2c1ncn2[C@@H]1O[C@H](CO)[C@H](O)C1O (stereo partly drawn) [CBK201199] — lower, 95.8%
